Measured values from patent US20090156575A1, “NOVEL DIAZASPIROALKANES AND THEIR USE FOR TREATMENT OF CCR8 MEDIATED DISEASES” (priority 2005, published 2009).
Counter-ions that a name gives are not always drawn. Like-named read-outs stand apart in the source and are kept apart here.

Biological target: T1, human recombinant chemokine CCR8 receptor (Homo sapiens, UniProt P51685)
T1 construct: purchased Euroscreen ES-136-M; host or cells: CHO-K1 cells (transfected), membrane preparation
Assay: CCL1 SPA binding assay
Details: membranes from CHO-K1 cells transfected with human CCR8, 125I CCL1 displacement, SPA beads
Description: Membranes from CHO-K1 cells transfected with human recombinant chemokine CCR8 receptor (ES-136-M) were purchased from Euroscreen. Membrane preparations are stored at −70 C in 7.5 mM Tris-Cl pH 7.5, 12.5 mM MgCl2, 0.3 mM EDTA, 1 mM EGTA, 250 mM sucrose until used.
The CCR8 membranes (50.6 mg/ml) were preincubated with Wheat Germ Agglutinin SPA beads (4.05 mg/ml) in assay buffer (50 mM HEPES, 1 mM CaCl2×2H2O, 5 mM MgCl2×6H2O, 75 mM NaCl, 0.1% BSA) at pH=7.4 for 2 hours on ice. A […] dose-response curve (final concentrations 50 μM, 16.7 μM, 5.6 μM, 1.9 μM, 0.62 μM, 0.21 μM, 0.069 μM, 0.023 μM) was prepared by diluting compounds by serial dilution 1:3 in DMSO. In the screening plate (Polystyrene NBS plates, Costar Corning 3604) 1 μl from the DMSO solutions of compounds was transferred into each well. 1 μl of DMSO was added to the blank control wells and 1 μl unlabeled CCL1 (300 nM) was added to background control wells. 50 μl of the SPA bead-membrane mixture was added into each well. Finally, 50 μl ([…]) ^125I CCL1 (2000 Ci/mM) was added to each well. Plates were then incubated at RT with shaking (700 rpm) for 90 minutes followed by 30 minutes at RT without shaking. The plate was read in a Wallac MicroBeta counter for 2 minutes/well.

T1 sequence (P51685 whole entry): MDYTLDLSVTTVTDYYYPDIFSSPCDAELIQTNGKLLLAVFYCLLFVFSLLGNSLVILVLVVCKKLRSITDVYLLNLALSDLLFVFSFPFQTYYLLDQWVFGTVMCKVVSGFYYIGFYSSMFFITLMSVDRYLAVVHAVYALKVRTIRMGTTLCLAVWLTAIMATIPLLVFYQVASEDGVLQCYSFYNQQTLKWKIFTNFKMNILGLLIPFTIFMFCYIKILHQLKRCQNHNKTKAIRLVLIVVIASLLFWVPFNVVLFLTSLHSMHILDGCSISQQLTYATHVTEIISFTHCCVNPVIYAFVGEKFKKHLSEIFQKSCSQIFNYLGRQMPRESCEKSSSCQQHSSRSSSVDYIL

| IC50 (read-out: IC50) [nM] | Structure (SMILES) | IC50 (IC50 (nM)) [nM] |
| --- | --- | --- |
| 9 | COC(=O)Cc1ccccc1C(=O)N1CCC2(CCN(Cc3cccc4c3OC(C)(C)C4)CC2)CC1 [Example 5, Methyl [2-({9-[(2,2-dimethyl-2,3-dihydro-1-benzofuran-7-yl)methyl]-3,9-diazaspiro[5.5]undec-3-yl}carbonyl)phenyl]acetate] |  |
| 21 | CC1(C)COc2c(CN3CCC4(CC3)CCN(C(=O)c3ccc(N)cn3)CC4)cccc2O1 [Example 173, 6-({9-[(2,2-dimethyl-2,3-dihydro-1,4-benzodioxin-5-yl)methyl]-3,9-diazaspiro[5.5]undec-3-yl}carbonyl)pyridin-3-amine Trifluoroacetate] |  |
| 38 | CC1(C)Cc2cccc(CN3CCC4(CC3)CCN(C(=O)c3ccccc3NC(=O)C3CCCO3)CC4)c2O1 (stereo not shown) [Example 49, N-[2-({9-[(2,2-dimethyl-2,3-dihydro-1-benzofuran-7-yl)methyl]-3,9-diazaspiro[5.5]undec-3-yl}carbonyl)phenyl]tetrahydrofuran-2-carboxamide] |  |
| 23 | CC1(C)Oc2cccc(CN3CCC4(CC3)CCN(C(=O)c3ncccc3N)CC4)c2O1 [Example 92, 2-({9-[(2,2-dimethyl-1,3-benzodioxol-4-yl)methyl]-3,9-diazaspiro[5.5]undec-3-yl}carbonyl)pyridin-3-amine] |  |
| 70 | CC1(C)C=Cc2cccc(CN3CCC4(CC3)CN(C(=O)c3ccncc3)C4)c2O1 [Example 139, 7-[(2,2-dimethyl-2H-chromen-8-yl)methyl]-2-isonicotinoyl-2,7-diazaspiro[3.5]nonane] |  |
| 57 | CC1(C)Cc2cccc(CN3CCC4(CC3)CCN(C(=O)c3ccccc3CC(=O)N3CCC[C@@H]3C(N)=O)CC4)c2O1 [Example 18, 1-{[2-({9-[(2,2-dimethyl-2,3-dihydro-1-benzofuran-7-yl)methyl]-3,9-diazaspiro[5.5]undec-3-yl}carbonyl)phenyl]acetyl}-D-prolinamide] |  |
| 143 | CC1(C)Cc2cccc(CN3CCC4(CC3)CCN(C(=O)c3cccc5c3NC(=O)C5=O)CC4)c2O1 [Example 63, 7-({9-[(2,2-dimethyl-2,3-dihydro-1-benzofuran-7-yl)methyl]-3,9-diazaspiro[5.5]undec-3-yl}carbonyl)-1H-indole-2,3-dione Trifluoroacetate] |  |
| 84 | CC1(C)Oc2cccc(CN3CCC4(CC3)CCN(C(=O)c3ccc(N)[nH]c3=O)CC4)c2O1 [Example 133, 6-amino-3-({9-[(2,2-dimethyl-1,3-benzodioxol-4-yl)methyl]-3,9-diazaspiro[5.5]undec-3-yl}carbonyl)pyridin-2(1H)-one] |  |
|  | CC1(C)Cc2c(CN3CCC4(CC3)CCN(C(=O)c3ccc(N)cn3)CC4)cccc2O1 [Example 86, 6-({9-[(2,2-dimethyl-2,3-dihydro-1-benzofuran-4-yl)methyl]-3,9-diazaspiro[5.5]undec-3-yl}carbonyl)pyridin-3-amine Trifluoroacetate] | 8 |
| 72 | COC(=O)Cc1ccccc1C(=O)N1CCC2(CCN(Cc3cccc4c3OC(C)(C)C4)CC2)CC1 [Example 181, Methyl [2-({9-[(2,2-dimethyl-2,3-dihydro-1-benzofuran-7-yl)methyl]-3,9-diazaspiro[5.5]undec-3-yl}carbonyl)phenyl]acetate] |  |
| 50 | CC1(C)Cc2c(CN3CCC4(CC3)CN(C(=O)c3ccnc(N)n3)C4)cccc2O1 [Example 157, 4-({7-[(2,2-dimethyl-2,3-dihydro-1-benzofuran-4-yl)methyl]-2,7-diazaspiro[3.5]non-2-yl}carbonyl)pyrimidin-2-amine] |  |
| 32 | CC1(C)COc2cccc(CN3CCC4(CC3)CCN(C(=O)c3ccncc3CC(N)=O)CC4)c2O1 [Example 143, 2-[4-({9-[(3,3-dimethyl-2,3-dihydro-1,4-benzodioxin-5-yl)methyl]-3,9-diazaspiro[5.5]undec-3-yl}carbonyl)pyridin-3-yl]acetamide Ditrifluoroacetate] |  |
| 87 | CC1(C)Cc2c(CN3CCC4(CC3)CCN(C(=O)c3ccncc3CC(N)=O)CC4)cccc2O1 [Example 159, 2-[4-({9-[(2,2-dimethyl-2,3-dihydro-1-benzofuran-4-yl)methyl]-3,9-diazaspiro[5.5]undec-3-yl}carbonyl)pyridin-3-yl]acetamide] |  |
| 8 | CC1(C)Cc2cccc(CN3CCC4(CC3)CCN(C(=O)c3ccc5cc[nH]c5c3)CC4)c2O1 [Example 68, 3-[(2,2-dimethyl-2,3-dihydro-1-benzofuran-7-yl)methyl]-9-(1H-indol-6-ylcarbonyl)-3,9-diazaspiro[5.5]undecane Acetate] |  |
| 53 | CC1(C)COc2c(CN3CCC4(CC3)CCN(C(=O)c3ccncc3)CC4)cccc2O1 [Example 110, 3-[(2,2-dimethyl-2,3-dihydro-1,4-benzodioxin-5-yl)methyl]-9-isonicotinoyl-3,9-diazaspiro[5.5]undecane Trifluoroacetate] |  |
| 104 | CC1(C)Cc2cccc(CN3CCC4(CC3)CCN(C(=O)CCc3nc(-c5ccccn5)no3)CC4)c2O1 [Example 111, 3-[(2,2-dimethyl-2,3-dihydro-1-benzofuran-7-yl)methyl]-9-[3-(3-pyridin-2-yl-1,2,4-oxadiazol-5-yl)propanoyl]-3,9-diazaspiro[5.5]undecane] |  |
| 10 | CC1(C)Cc2cccc(CN3CCC4(CC3)CCN(C(=O)c3ccno3)CC4)c2O1 [Example 31, 3-[(2,2-dimethyl-2,3-dihydro-1-benzofuran-7-yl)methyl]-9-(isoxazol-5-ylcarbonyl)-3,9-diazaspiro[5.5]undecane Trifluoroacetate] |  |
| 12 | CC1(C)Cc2cccc(CN3CCC4(CC3)CCN(C(=O)c3ccncc3)CC4)c2O1 [Example 1, 3-[(2,2-dimethyl-2,3-dihydro-1-benzofuran-7-yl)methyl]-9-isonicotinoyl-3,9-diazaspiro[5.5]undecane Trifluoroacetate] |  |
| 12 | CC1(C)Cc2c(CN3CCC4(CC3)CCN(C(=O)c3ccnc(N)n3)CC4)cccc2O1 [Example 124, 4-({9-[(2,2-dimethyl-2,3-dihydro-1-benzofuran-4-yl)methyl]-3,9-diazaspiro[5.5]undec-3-yl}carbonyl)pyrimidin-2-amine] |  |
